According to patent US20260077043A1, “COMBINATION THERAPY” (LEAP THERAPEUTICS, INC., priority 2022, published 2026):

Tests used:
[1] = test system: HCT116 human colorectal carcinoma cells without the PIK3CA H1047R mutation; experiment: HCT116 PIK3CA+/− subcutaneous xenograft, tumor growth inhibition; type: in vivo, BALB/c scid mice; conditions: Day 52 (Treatment Day 36), compared to the IgG4 control; DKN-01 5 mg/kg IP twice weekly, BYL719 25 mg/kg PO QD
From the text: (§1) A study was initiated to evaluate growth of a human colorectal cancer cell line, HCT116, with and without the PI3KCA H1047R mutation in mice treated with DKN-01, the PI3KCA inhibitor BYL719 (Alpelisib), or the combination. Female BALB/c scid mice were inoculated subcutaneously with HCT116 human colon carcinoma cells with or without the H1047R mutation on Day 0. On Day 17, when tumors volumes had reached 50-75 mm3, animals were randomized into treatment groups and dosing was initiated.
(§2) Female BALB/c scid mice (10 per group) were inoculated subcutaneously in the right flank with 10×10^6 HCT116 human colorectal carcinoma cells on Day 0. Human IgG4 control (10 mg/kg) and DKN-01 (5 mg/kg) were administered intraperitoneally (IP) twice weekly. BYL719 (25 mg/kg) was administered orally (PO) every day (QD) for the duration of the study. Tumor measurements were performed every 3-4 days with calipers and volume (V) was calculated using the following formula: V=½(length [mm]×width [mm]^2). Data are shown as mean tumor volumes (MTV)+SEM. #, p<0.05. Percent TGI =[(MTV Control)−(MTV Treated)]/(MTV Control). Comparisons between groups at study termination were performed using a one-way repeated measures ANOVA with Tukey's multiple comparisons test.

[2] = test system: HCT116 human colorectal carcinoma cells with H1047R mutation; experiment: HCT116 H1047/− subcutaneous xenograft, tumor growth inhibition; type: in vivo, BALB/c scid mice; conditions: Day 48 (Treatment Day 36), compared to the IgG4 control; DKN-01 5 mg/kg IP twice weekly, BYL719 25 mg/kg PO QD
From the text: as §1, §2

In the case of Cc1nc(NC(=O)N2CCC[C@H]2C(N)=O)sc1-c1ccnc(C(C)(C)C(F)(F)F)c1 [BYL719, Alpelisib], the “Tumor Growth Inhibition (TGI)” value [1] is reported as 50% and the “Tumor Growth Inhibition (TGI)” value [2] is reported as 56%.
